The text below walks through data of patent US9868763B2, “Modulators of protease activated receptors” (The University of Queensland, priority 2011, dated 2018).

pIC50: −log10 of the molar value. Bounds are passed on as bounds.

Assay [1] deals with T1, PAR2 (Mus musculus, UniProt P55086).
T1 construct: endogenous in cells; host or cells: MIN6 (mouse pancreatic beta cell line)
T1 sequence (P55086 26-399): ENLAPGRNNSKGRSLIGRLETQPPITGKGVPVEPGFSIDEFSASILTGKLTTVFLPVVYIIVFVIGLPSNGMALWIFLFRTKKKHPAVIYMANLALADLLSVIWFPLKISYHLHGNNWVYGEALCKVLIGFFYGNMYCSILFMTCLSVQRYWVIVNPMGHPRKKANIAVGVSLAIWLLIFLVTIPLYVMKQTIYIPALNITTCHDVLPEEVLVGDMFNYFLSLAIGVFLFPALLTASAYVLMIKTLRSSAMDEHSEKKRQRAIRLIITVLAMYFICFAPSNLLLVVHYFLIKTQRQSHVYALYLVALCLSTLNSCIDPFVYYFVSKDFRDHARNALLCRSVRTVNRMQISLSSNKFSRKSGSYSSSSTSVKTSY
In words: Intracellular calcium mobilization in MIN6 beta cells. The assay is classed as cell-based. Conditions: concentration-dependent. As for the experimental part:
Results: Pathogenesis of pancreatic dysfunction is linked to chronic nutritional surplus and elevated fatty acids, so in vivo and in vitro effects of compound 52 were evaluated on rat pancreas and mouse MIN6 beta cells. […] PAR2 agonists and compound 52 were further evaluated in vitro for glucose-stimulated insulin secretion (GSIS) and intracellular calcium mobilization in mouse MIN6 beta cells.

Assay [2] relates to MIN6 beta cells. Description: Glucose-stimulated insulin secretion (GSIS). Conditions: 52 as pre-treatment before 2f-LIGRLO-NH2. The assay is classed as cell-based, mouse. As for the experimental part: Rat pancreas and mouse MIN6 beta cells were cultured in DMEM (25 mM glucose) supplemented with 15% fetal calf serum, 10 U/mL penicillin, 10 U/mL streptomycin, 2 mM L-glutamine and […] 2-mercaptoethanol. MIN6 beta cells were passaged and harvested using non-enzymatic cell dissociation solution (Sigma-Aldrich). Glucose-stimulated insulin secretion (GSIS) was performed as described next. MIN6 beta cells were seeded at 0.8×106 mL in a 96-well plate and cultured for 48 h. Cells were washed twice with glucose-free Krebs buffer (NaCl 119 mM, KCl 4.74 mM, CaCl2 2.54 mM, MgCl2 1.19 mM, KH2PO4 1.19 mM, NaHCO3 25 mM, HEPES (pH 7.4) 10 mM and 0.05% BSA). Cells were pre-treated with compound 52 for 30 min with Krebs buffer supplemented with 2.5 mM glucose. After incubation, cells were washed twice with glucose-free Krebs buffer. Glucose (2.5 mM and 25 mM) and compounds were added at specified concentration and incubated for 1 h. Supernatants were collected and insulin concentrations were determined by ELISA (Abeam).

The target of assay [3] is T2, PAR2 (Homo sapiens, UniProt P55085).
T2 sequence (P55085 26-397): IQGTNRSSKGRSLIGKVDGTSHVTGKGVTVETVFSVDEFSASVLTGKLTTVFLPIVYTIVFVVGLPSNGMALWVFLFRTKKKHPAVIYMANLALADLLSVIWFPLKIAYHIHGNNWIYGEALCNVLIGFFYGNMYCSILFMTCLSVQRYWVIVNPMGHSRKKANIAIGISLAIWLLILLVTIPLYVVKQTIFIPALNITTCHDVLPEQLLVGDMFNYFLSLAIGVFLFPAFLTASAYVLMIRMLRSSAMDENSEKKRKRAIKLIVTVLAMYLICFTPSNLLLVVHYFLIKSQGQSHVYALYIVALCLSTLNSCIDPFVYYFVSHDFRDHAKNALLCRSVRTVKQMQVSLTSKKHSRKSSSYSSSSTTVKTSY
Description: Colonocyte modulation: intracellular calcium mobilization in HT29 cells. Conditions: HT29 colonocytes, 15 min before 2Furoyl-LIGRLO-NH2. The assay is classed as cell-based. More on the design: endogenous in cells; host or cells: HT29 (human colorectal adenocarcinoma). As for the experimental part:
Human colorectal adenocarcinoma (HT29) cells were incubated with a calcium binding dye ([…]) buffer for 1 h at 37° C. […] Intracellular calcium mobilization was measured by differences in fluorescence plotted against corresponding antagonist concentrations, enabling the determination of antagonist potency.
A general note: Calcium flux is commonly read through the fluorescence of an indicator in the cells.

Assay [4] concerns 2furoyl-LIGRLO-NH2-induced paw oedema. In words: PAR2 agonist-induced paw oedema. The assay is classed as in vivo, Wistar rat. Conditions: s.c.; 52 10 mg/kg, ENMD-1068 100 mg/kg; agonist 350 μg/paw. As for the experimental part:
The methods used are based on those previously described (Kelso, E. B., et al. Arthritis Rheum 2007, 56, 765-71; Kelso, E. B., et al. J Pharmacol Exp Ther 2006, 316, 1017-24; and Vergnolle, N. J Immunol 1999, 163, 5064-9). Male Wistar rats (n=3 per group) are used. Briefly, rats are given either 5 or 10 mg/kg of a compound of the present invention (p.o. via gavage in olive oil, approx. 500 μL, weight adjusted). Control animals receive only olive oil (500 μL p.o.). Two hours later, the PAR2 agonist 2-furoyl-LIGRLO (350 μg/paw in saline, 100 μL) is injected into the plantar surface (i.pl.) of the right paw pad using a 30 G needle. The left paw acts as a control, receiving saline only. Paw thickness and width are measured after 30 minutes and hourly using digital calipers (World Precision Instruments, USA) and swelling is calculated in area (mm^2; thickness multiplied by width) and expressed as a percentage change from baseline of each individual paw.
Based on previous methods (Kelso E B et al., J Pharmacol Exp Ther 2006, 316(3):1017-24; Suen J Y et al., Br J Pharmacol 2011, doi: 10.1111/j.1476-5381.2011.01610.x.), PAR2 antagonist 52 (10 mg/kg s.c.; n=4), ENMD-1068 (100 mg/kg s.c.; n=4) or vehicle control (DMSO s.c.; n=2) were administered to male Wistar rats. Baseline paw thickness and width were measured using digital calipers (World Precision Instruments, USA) expressed in area (mm^2; thickness×width). Fifteen minutes later, 2Furoyl-LIGLRO-NH2 (350 μg/paw in 100 μL saline) was injected into of the right hind paw pad (intraplantar, i.pl.). The left hind paw acted as a control, receiving saline only. In a separate experiment, vehicle (500 μL olive oil) versus PAR2 antagonist 52 (10 mg/kg p.o. in 500 μL olive oil) only were administered orally to two groups of rats (4 per group). Two hours later, β-tryptase (human recombinant lung, 20 μg in 100 μL saline) was injected into the right hind paw pad (vehicle in left for control) of all animals in each group. In all experiments, paw swelling was measured and expressed in area (mm^2; thickness×width) and plotted as % change from baseline of each individual paw.

Assay [5] relates to human monocyte derived macrophages (HMDMs). In words: Palmitic acid stimulation of human monocyte derived macrophages. The assay is classed as cell-based. The procedure: To investigate if PAR2 is specifically linked to macrophage inflammation, the effect of palmitic acid on mRNA levels of PARs on human monocyte derived macrophages (HMDMs) was measured (FIG. 12). […] The increase of PAR2 mRNA in HMDM in the presence of palmitic acid was dose-dependent (FIG. 12B). Fold change in PAR2 was calculated relative to untreated sample. FIGS. 12C and D illustrate that palmitic acid stimulates proinflammition cytokines, IL-6 and IL-8, secretion from HMDM. Error bars are means±SEM; *P<0.05, **P<0.01, ***P<0.001.

Turning to 2f-LIGRLO-NH2 [reference compound], the “intracellular calcium release in MIN6 beta cells” value in assay [1] is “activated intracellular calcium release”. Further, in assay [2], the glucose-stimulated insulin secretion result was “inhibited glucose stimulated insulin sensitivity”.
Broadly, the pIC50 is the negative decadic logarithm of the IC50, by convention in mol/L. Consider `CC(C)CC(=O)N1CCN(C(=O)CCCCCN)CC1` [ENMD-1068, N1-3-methylbutyryl-N4-6-aminohexanoyl-piperazine, reference compound], for which the negative logarithm of the IC50 (pIC50) in assay [3] is 2.30. Further, the “paw oedema induced by 2furoyl-LIGRLO-NH2” value in assay [4] is “had no effect”.
`CCCCCCCCCCCCCCCC(=O)O` [palmitic acid]: the “IL-6 and IL-8 secretion from HMDM” value in assay [5] was “stimulates”. In addition, in assay [5] (HMDM, concentration dependent, relative to untreated), the “increase in mRNA concentrations of PAR2” value is on record as below 20 fold.
